Structures are written as SMILES. Where two headings read alike, the source gives them in different places.

As usually defined, the EC50 is the concentration needed to bring the measured effect to its halfway point.

The test system of data set [1] is HTNV-76118 strain. The data set can be described thus: microbe, parasite or virus in culture. Type of data set: cell-based, Hantaan virus (HTNV). Conditions: Orthohantavirus hantanense, Vero C1008, 120 h.
Data set [2] deals with HTNV-76118 strain. Nature of the data set: microbe, parasite or virus in culture. In kind it is cell-based, Hantaan virus (HTNV). Conditions: Orthohantavirus hantanense, Vero C1008, read-out: EC50, 2H pretreatment.
The subject of data set [3] is HTNV-76118 strain. Nature of the data set: microbe, parasite or virus in culture. In kind it is cell-based, Hantaan virus (HTNV). Conditions: Orthohantavirus hantanense, Vero C1008, read-out: EC50, Post entry.
The test system of data set [4] is HTNV-76118 strain. Nature of the data set: microbe, parasite or virus in culture. Type of data set: cell-based, Hantaan virus (HTNV). Conditions: for EC50: Orthohantavirus hantanense, Vero C1008, read-out: EC50, Virucidal.
The next data set is described as follows: in vitro. As to conditions: African green monkey.
The next data set has as its system HTNV. In kind it is cell-based, Hantaan virus (HTNV).

Take `NC(=O)c1ncn([C@@H]2O[C@H](CO)[C@@H](O)[C@H]2O)n1` [Ribavirin, ribavirin, reference compound]: the EC50 in the data set on HTNV-76118 strain [1] was 20.5 ± 1.63 µM; with HTNV-76118 strain [2], greater than 200 µM; in the data set with HTNV-76118 strain [3], 13.2 ± 0.4 µM; in the data set with HTNV-76118 strain [4], greater than 200 µM. In the data set on HTNV-76118 strain [4], the “direct virucidal effect on HTNV” value is given as “neither compound exhibited a direct virucidal effect”. The compound also returned a CC50 in the data set “in vitro” greater than 200 µM.
For the compound `CC(C)CC(=O)c1c(O)c2c(c3c1OC1(O)C(C(=O)C(C)(C)C(=O)C1(C)C)C3CC(C)C)OC1=C(C(=O)C(C)(C)C(=O)C1(C)C)C2CC(C)C` (stereo not shown) [Callistemontrimer B, callistemontrimer B], a half-maximal response in the data set with HTNV-76118 strain [1] (EC50) required 2.79 ± 1.4 µM. Moreover, the CC50 in “in vitro” is 16.9 ± 1 µM.
On to `CC(C)CC(=O)c1c(O)cc(O)c2c1OC1=C(C(=O)C(C)(C)C(=O)C1(C)C)C2CC(C)C` (stereo not shown) [Rhodomyrtosone B, rhodomyrtosone B], for which the EC50 in the data set with HTNV-76118 strain [1] turned out to be 2.69 ± 0.32 µM. The CC50 in “in vitro” amounted to 7.44 ± 1.15 µM.
Turning to `CC(C)CC(=O)c1c(O)c2c(c3c1OC1(O)C(C(=O)C(C)(C)C(=O)C1(C)C)C3C(C)C)OC1=C(C(=O)C(C)(C)C(=O)C1(C)C)C2CC(C)C` (stereo not shown) [Callistemontrimer A, callistemontrimer A], the EC50 in the data set on HTNV-76118 strain [1] is 4.41 ± 3.4 µM; with HTNV-76118 strain [2] it was greater than 50 µM; with HTNV-76118 strain [3], 0.65 ± 0.45 µM; with HTNV-76118 strain [4], greater than 50 µM. For the same compound, the “direct virucidal effect on HTNV” value with HTNV-76118 strain [4] is given as “neither compound exhibited a direct virucidal effect”. Further, the “suppression of viral replication (HTNV nucleoprotein immunofluorescence)” value in the data set with HTNV was “effectively suppressed viral replication”. The same compound had a CC50 in “in vitro” of 32.1 ± 6 µM.
Turning to `CC(C)CC(=O)c1c(O)cc2c(c1O)C(CC(C)C)C1=C(O2)C(C)(C)C(=O)C(C)(C)C1=O` (stereo not shown) [Rhodomyrtone, rhodomyrtone], in the data set on HTNV-76118 strain [1], it took 0.3 ± 0.03 µM to reach a half-maximal effect (EC50). In addition, in the data set “in vitro”, the CC50 was determined as 5.11 ± 2.49 µM.

(Values after publication PMC12299576 (Viruses, 2025).)
